Reference: ChEMBL document CHEMBL6078680, “Improving the Stability and Anti-Infective Activity of Sea Turtle AMPs Using Multiple Structural Modification Strategies” (J Med Chem, 2024)
Calls of active or inactive are those of the source. No cut-off for these calls is given here. Positions of bridges follow the written chain, without caps; N, C: chain ends. Non-standard residues stand in square brackets, D forms with d. Residues, ends and D or L forms follow the SMILES beside them. *: point of attachment. X3 = CC[C@H](C)CCCCC(=O)*; Dab = NCC[C@H](N)C(=O)O

Key:
[1] = Acute toxicity in BALB/c mouse assessed as mortality at 10 mg/kg, iv measured for 24 hrs; type: organism-based; settings: in vivo, read-out: Activity
[2] = Acute toxicity in BALB/c mouse assessed as mortality at 15 mg/kg, iv measured for 24 hrs; type: organism-based; settings: in vivo, read-out: Activity
[3] = Acute toxicity in BALB/c mouse assessed as mortality at 50 mg/kg, iv measured for 24 hrs; type: organism-based; settings: in vivo, read-out: Activity
[4] = Acute toxicity in BALB/c mouse assessed as mortality at 20 mg/kg, iv measured for 24 hrs; type: organism-based; settings: in vivo, read-out: Activity
[5] = system: Staphylococcus epidermidis; assay: Antimicrobial activity against Staphylococcus epidermidis assessed as reduction in microbial growth incubated for 18 hrs by broth microdilution method; type: functional
[6] = system: Staphylococcus aureus; assay: Antimicrobial activity against Staphylococcus aureus CMCC 26003 at 5 times MIC by time kill assay; type: functional, organism-based; settings: time 180.0 min
[7] = system: Clostridium perfringens; assay: Antimicrobial activity against Clostridium perfringens ATCC 13124 assessed as reduction in microbial growth incubated for 18 hrs by broth microdilution method; type: functional
[8] = system: Enterococcus faecalis; assay: Antimicrobial activity against Enterococcus faecalis ATCC 29217 assessed as reduction in microbial growth incubated for 18 hrs by broth microdilution method; type: functional
[9] = system: Pseudomonas aeruginosa; assay: Antimicrobial activity against Pseudomonas aeruginosa CMCC10104 assessed as reduction in microbial growth incubated for 18 hrs by broth microdilution method; type: functional
[10] = system: Escherichia coli; assay: Antimicrobial activity against Escherichia coli CMCC44102 assessed as reduction in microbial growth incubated for 18 hrs by broth microdilution method; type: functional
[11] = system: Escherichia coli; assay: Antimicrobial activity against Escherichia coli ATCC 25922 assessed as reduction in microbial growth incubated for 18 hrs by broth microdilution method; type: functional
[12] = system: Staphylococcus aureus; assay: Antimicrobial activity against Staphylococcus aureus CMCC 26003 assessed as reduction in microbial growth incubated for 18 hrs by broth microdilution method; type: functional
[13] = system: Staphylococcus aureus; assay: Antimicrobial activity against Staphylococcus aureus ATCC 43300 assessed as reduction in microbial growth incubated for 18 hrs by broth microdilution method; type: functional
[14] = system: Enterococcus faecium; assay: Antimicrobial activity against Enterococcus faecium 34 assessed as reduction in microbial growth incubated for 18 hrs by broth microdilution method; type: functional
[15] = system: Acinetobacter baumannii; assay: Antimicrobial activity against Acinetobacter baumannii ATCC19606 assessed as reduction in microbial growth incubated for 18 hrs by broth microdilution method; type: functional
[16] = system: Staphylococcus aureus; assay: Antimicrobial activity against Staphylococcus aureus 08032706 assessed as reduction in microbial growth incubated for 18 hrs by broth microdilution method; type: functional
[17] = system: Salmonella enteritidis; assay: Antimicrobial activity against Salmonella enterica subsp. enterica serovar Enteritidis ATCC 14028 assessed as reduction in microbial growth incubated for 18 hrs by broth microdilution method; type: functional
[18] = system: Escherichia coli; assay: Drug resistance, ratio of MIC for Escherichia coli ATCC 25922 after 40 passages to MIC for Escherichia coli ATCC 25922 during first exposure; type: functional
[19] = system: Peritoneal macrophage; assay: Cytotoxicity against mouse Peritoneal macrophage cells assessed as decrease in cell number at 20 microg/ml; type: functional, cell-based; settings: dose 20.0 µg/ml
[20] = system: B16-F10; assay: Cytotoxicity against mouse B16-F10 cells assessed as survival rate at 100 microg/ml; type: functional; settings: read-out: Survival
[21] = system: Peritoneal macrophage; assay: Antiinflammatory activity in mouse Peritoneal macrophage cells assessed as inhibition of LPS-induced TNF-alpha production at 20 microg/ml incubated for 6 hrs by ELISA analysis; type: functional, cell-based; settings: dose 20.0 µg/ml
[22] = system: HaCaT; assay: Cytotoxicity against human HaCaT cells assessed as survival rate at 100 microg/ml; type: functional; settings: read-out: Survival
[23] = system: Staphylococcus aureus; assay: Antimicrobial activity against Staphylococcus aureus CMCC 26003 at 5 times MIC measured at 180 mins; type: functional, organism-based
[24] = system: 4T1; assay: Cytotoxicity against mouse 4T1 cells assessed as survival rate at 100 microg/ml; type: functional; settings: read-out: Survival
[25] = system: Peritoneal macrophage; assay: Antiinflammatory activity in mouse Peritoneal macrophage cells assessed as inhibition of LPS-induced IL-6 production at 20 microg/ml incubated for 6 hrs by ELISA analysis; type: functional, cell-based; settings: dose 20.0 µg/ml
[26] = system: Peritoneal macrophage; assay: Cytotoxicity against mouse Peritoneal macrophage cells assessed as survival rate at 100 microg/ml; type: functional; settings: read-out: Survival

Molecule	Ratio [18]	Activity [19]	viability at 100 µg/mL [20] [%]	Activity [21]	viability at 100 µg/mL [22] [%]	Activity [23]	viability at 100 µg/mL [24] [%]	Activity [25]	viability at 100 µg/mL [26] [%]	further results
CC(C)CCCCC(=O)N[C@@H](CCN)C(=O)N[C@H](C(=O)N[C@@H](CCN)C(=O)N[C@H]1CCNC(=O)[C@H]([C@@H](C)O)NC(=O)[C@H](CCN)NC(=O)[C@H](CCN)NC(=O)[C@H](CC(C)C)NC(=O)[C@@H](Cc2ccccc2)NC(=O)[C@H](CCN)NC1=O)[C@@H](C)O.CC[C@H](C)CCCCC(=O)N[C@@H](CCN)C(=O)N[C@H](C(=O)N[C@@H](CCN)C(=O)N[C@H]1CCNC(=O)[C@H]([C@@H](C)O)NC(=O)[C@H](CCN)NC(=O)[C@H](CCN)NC(=O)[C@H](CC(C)C)NC(=O)[C@@H](Cc2ccccc2)NC(=O)[C@H](CCN)NC1=O)[C@@H](C)O (X3-[Dab]T[Dab][Dab][Dab][dF]L[Dab][Dab]T; lactam 4-C)										mortality at 24 h [1]: 50%; mortality at 24 h [2]: 100%; mortality at 24 h [3]: 100%; mortality at 24 h [4]: 100%
CC1(C)S[C@@H]2[C@H](NC(=O)[C@H](N)c3ccccc3)C(=O)N2[C@H]1C(=O)O [AMPICILLIN]										MIC [5]: 2.34 µg/mL; AC30 [6]: Active; MIC [7]: 2.34 µg/mL; MIC [8]: < 0.78 µg/mL; MIC [9]: > 100 µg/mL; MIC [10]: 2.34 µg/mL; MIC [11]: 2.34 µg/mL; MIC [12]: < 0.78 µg/mL; MIC [13]: 9.38 µg/mL; MIC [14]: < 0.78 µg/mL; MIC [15]: > 100 µg/mL; MIC [16]: < 0.78 µg/mL; MIC [17]: 1.17 µg/mL
C[C@@H](O)[C@H]1C(=O)N2C(C(=O)O)=C(S[C@@H]3CN[C@H](C(=O)N(C)C)C3)[C@H](C)[C@H]12 [MEROPENEM]	64									
H-RRSRFGRFFKKVRKQLGRVLRHSRI-NH2	1	Active	< 40	Active	80	inactive	< 40	Active	80	
H-RRSRFGRFFKKVRKQLGRVLRHSRITVGGRM-NH2		Active	< 40	Active	80	inactive	< 40	Active	80	
